The results in this text go back to ChEMBL document CHEMBL3046322, “Insect growth regulatory effects by diterpenes from Calceolaria talcana Grau & Ehrhart (Calceolariaceae: Scrophulariaceae) against Spodoptera frugiperda and Drosophila melanogaster” (2013).

Some results are limits rather than exact numbers.

Common to all, as to assay type: functional
Assay [1] relates to Spodoptera frugiperda. As to the kind of experiment: Growth inhibitory activity against po dosed fourth-instar larvae of Spodoptera frugiperda (fall armyworm) assessed as proportion of prothetely appearance of precocious pupal structure in larvae after 48 to 72 hr. Details: scale not given: the % may be the effect or the level left.
The test system of assay [2] is Spodoptera frugiperda. As to the kind of experiment: Growth inhibitory activity against first-instar larval stage of Spodoptera frugiperda (fall armyworm) fed with compound incorporated diet assessed as length gained at 35 ug/ml after 21 days (reference value: 100%).
For assay [3], the system named is Drosophila melanogaster. The assay is described as follows: Insecticidal activity against Drosophila melanogaster larvae fed with compound incorporated diet assessed as mortality at 100 ug/ml after 72 hr by not choice test (reference value: 0%).
The subject of assay [4] is Spodoptera frugiperda. The assay is described as follows: Acute toxicity against last larval stage of Spodoptera frugiperda (fall armyworm) assessed as survival at 20 ug/ml applied topically onto abdomen measured after 24 hr (reference value: 98.8 +/-3.5%).
Assay [5] has as its system Spodoptera frugiperda. As to the kind of experiment: Acute toxicity against last larval stage of Spodoptera frugiperda (fall armyworm) assessed as survival at 70 ug/ml applied topically onto abdomen measured after 24 hr (reference value: 98.8 +/-3.5%).
Assay [6] deals with Spodoptera frugiperda. As to the kind of experiment: Growth inhibitory activity against Spodoptera frugiperda (fall armyworm) larvae fed with compound containing diet assessed as growth index at 20 ug/ml (reference value: 0.95 +/-0.02 no_unit).
Assay [7] deals with Spodoptera frugiperda. As to the kind of experiment: Growth inhibitory activity against Spodoptera frugiperda (fall armyworm) larvae fed with compound containing diet assessed as growth index at 50 ug/ml (reference value: 0.95 +/-0.02 no_unit).
Assay [8] concerns Spodoptera frugiperda. As to the kind of experiment: Growth inhibitory activity against first-instar larval stage of Spodoptera frugiperda (fall armyworm) fed with compound incorporated diet assessed as weight gained at 5 ug/ml after 7 days (reference value: 100%). Details: scale not given: the % may be the effect or the level left.
Assay [9] concerns Spodoptera frugiperda. As to the kind of experiment: Growth inhibitory activity against first-instar larval stage of Spodoptera frugiperda (fall armyworm) fed with compound incorporated diet assessed as length gained at 10 ug/ml after 7 days (reference value: 100%).
The subject of assay [10] is Spodoptera frugiperda. The assay is described as follows: Growth inhibitory activity against Spodoptera frugiperda (fall armyworm) larvae fed with compound containing diet assessed as relative growth index at 50 ug/ml (reference value: 1.0 no_unit).
For assay [11], the system named is Spodoptera frugiperda. As to the kind of experiment: Insecticidal activity against first-instar larval stage of Spodoptera frugiperda (fall armyworm) fed with compound incorporated diet assessed as mortality at 35 ug/ml after 7 days (reference value: 5.6%). The note with it: 168 h.
For assay [12], the system named is Spodoptera frugiperda. The assay is described as follows: Acute toxicity against last larval stage of Spodoptera frugiperda (fall armyworm) assessed as survival at 5 ug/ml applied topically onto abdomen measured after 24 hr (reference value: 98.8 +/-3.5%).
In assay [13] the test system is Spodoptera frugiperda. As to the kind of experiment: Growth inhibitory activity against Spodoptera frugiperda (fall armyworm) larvae fed with compound containing diet assessed as relative growth index at 20 ug/ml (reference value: 1.0 no_unit).
Assay [14] concerns Spodoptera frugiperda. The assay is described as follows: Acute toxicity against last larval stage of Spodoptera frugiperda (fall armyworm) assessed as survival at 10 ug/ml applied topically onto abdomen measured after 24 hr (reference value: 98.8 +/-3.5%).
Assay [15] concerns Spodoptera frugiperda. As to the kind of experiment: Insecticidal activity against first-instar larval stage of Spodoptera frugiperda (fall armyworm) fed with compound incorporated diet assessed as mortality at 50 ug/ml after 21 days (reference value: 5.6%). The note with it: 504 h.
The test system of assay [16] is Drosophila melanogaster. As to the kind of experiment: Insecticidal activity against Drosophila melanogaster larvae fed with compound incorporated diet assessed as mortality at 50 ug/ml after 72 hr by not choice test (reference value: 0%).
The test system of assay [17] is Spodoptera frugiperda. As to the kind of experiment: Acute toxicity against last larval stage of Spodoptera frugiperda (fall armyworm) assessed as mortality applied topically onto abdomen measured after 7 days. As to conditions: topical, 168 h.
Assay [18] concerns Spodoptera frugiperda. As to the kind of experiment: Acute toxicity against last larval stage of Spodoptera frugiperda (fall armyworm) assessed as survival at 50 ug/ml applied topically onto abdomen measured after 24 hr (reference value: 98.8 +/-3.5%).
Assay [19] has as its system Spodoptera frugiperda. As to the kind of experiment: Growth inhibitory activity against first-instar larval stage of Spodoptera frugiperda (fall armyworm) fed with compound incorporated diet assessed as length gained at 5 ug/ml after 7 days (reference value: 100%). Also noted: scale not given: the % may be the effect or the level left.
Assay [20] has as its system Spodoptera frugiperda. The assay is described as follows: Growth inhibitory activity against Spodoptera frugiperda (fall armyworm) larvae fed with compound containing diet assessed as relative growth index at 35 ug/ml (reference value: 1.0 no_unit).
For assay [21], the system named is Spodoptera frugiperda. The assay is described as follows: Acute toxicity against last larval stage of Spodoptera frugiperda (fall armyworm) assessed as survival at 35 ug/ml applied topically onto abdomen measured after 24 hr (reference value: 98.8 +/-3.5%).
Assay [22] concerns Spodoptera frugiperda. As to the kind of experiment: Growth inhibitory activity against Spodoptera frugiperda (fall armyworm) larvae fed with compound containing diet assessed as relative growth index at 10 ug/ml (reference value: 1.0 no_unit).
Assay [23] deals with Spodoptera frugiperda. The assay is described as follows: Growth inhibitory activity against Spodoptera frugiperda (fall armyworm) larvae fed with compound containing diet assessed as reduction in adult emergence at 35 ug/ml.
Assay [24] concerns Spodoptera frugiperda. The assay is described as follows: Growth inhibitory activity against Spodoptera frugiperda (fall armyworm) larvae fed with compound containing diet assessed as reduction in survival pupation at >35 ug/ml.
Assay [25] deals with Spodoptera frugiperda. As to the kind of experiment: Growth inhibitory activity against Spodoptera frugiperda (fall armyworm) larvae fed with compound containing diet assessed as delay in time to pupation at 5 ug/ml.
Assay [26] concerns Drosophila melanogaster. The assay is described as follows: Insecticidal activity against Drosophila melanogaster larvae fed with compound incorporated diet assessed as mortality at 35 ug/ml after 72 hr by not choice test (reference value: 0%).
The subject of assay [27] is Drosophila melanogaster. The assay is described as follows: Insecticidal activity against Drosophila melanogaster larvae fed with compound incorporated diet assessed as mortality at 5 ug/ml after 72 hr by not choice test (reference value: 0%).
Assay [28] concerns Spodoptera frugiperda. The assay is described as follows: Growth inhibitory activity against Spodoptera frugiperda (fall armyworm) larvae fed with compound containing diet assessed as delay in time to pupation at 20 ug/ml.

On to `CC(C)c1ccc2c(c1)CC[C@H]1[C@](C)(CO)CCC[C@]21C` [POMIFERIN A], for which the Activity in the assay with Spodoptera frugiperda [1] came out at 30%; in the assay with Spodoptera frugiperda [4] it was 51%; in the assay on Spodoptera frugiperda [5] it was 0%; in the assay on Spodoptera frugiperda [8], 89.5%; with Spodoptera frugiperda [12], 75%; in the assay with Spodoptera frugiperda [14], 69.1%. In addition, the values for the Activity in the assay with Spodoptera frugiperda [18], in the assay with Spodoptera frugiperda [19] and in the assay on Spodoptera frugiperda [21] were 3.9%, 88.3% and 6.9%, respectively. Besides, the “Length gained relative to control” value in the assay with Spodoptera frugiperda [2] worked out at 37.4%. Besides, the mortality at 100 µg/mL in the assay with Drosophila melanogaster [3] was found to be 82.9%. Further, the Growth_index is 0.91 in the assay with Spodoptera frugiperda [6]; 0.54 in the assay with Spodoptera frugiperda [7]; 0.71 in the assay with Spodoptera frugiperda [10]; 0.96 with Spodoptera frugiperda [13]; 0.75 in the assay with Spodoptera frugiperda [20]; 0.98 in the assay on Spodoptera frugiperda [22]. Moreover, the “Larval length gained (% of control)” value with Spodoptera frugiperda [9] is 79%. In the assay on Spodoptera frugiperda [11], the mortality at 35 µg/mL worked out at 63%. The mortality at 50 µg/mL in the assay on Spodoptera frugiperda [15] turned out to be 44%; in the assay on Drosophila melanogaster [16], 77%. Besides, in the assay with Spodoptera frugiperda [17], the LD50 was determined as 17.5 µg/mL. Further, in the assay with Spodoptera frugiperda [23], the inhibition at 35 µg/mL was 0%. Also, in the assay on Spodoptera frugiperda [24], the “inhibition (INH)” value amounted to 0%.

For the compound `C=C[C@]1(C)CC[C@H]2C(=CC[C@@H]3[C@](C)(CO)CC[C@@H]4C[C@@]432)C1`, the Activity in the assay with Spodoptera frugiperda [1] is on record as 30%; in the assay on Spodoptera frugiperda [8], 25.1%; in the assay on Spodoptera frugiperda [12] it was 27%; with Spodoptera frugiperda [14], 3.5%; with Spodoptera frugiperda [19] it was 68.7%. Further, the “Length gained relative to control” value in the assay on Spodoptera frugiperda [2] was 0%. For the same compound, the Growth_index in the assay with Spodoptera frugiperda [6] is recorded as 0.19; with Spodoptera frugiperda [13], 0.19; in the assay on Spodoptera frugiperda [20], 0.1; with Spodoptera frugiperda [22], 0.25. Further, in the assay on Spodoptera frugiperda [9], the “Larval length gained (% of control)” value came to 39%. Besides, the values for the mortality at 35 µg/mL in the assay with Spodoptera frugiperda [11] and in the assay with Drosophila melanogaster [26] were 98.4% and 100%, respectively. Also, the Time in the assay with Spodoptera frugiperda [25] is over 24 days. For the same compound, the mortality at 50 µg/mL with Spodoptera frugiperda [15] worked out at 100%. For the same compound, in the assay with Spodoptera frugiperda [17], the LD50 turned out to be 3.02 µg/mL. Moreover, the mortality at 5 µg/mL with Drosophila melanogaster [27] worked out at 0%. For the same compound, in the assay on Spodoptera frugiperda [23], the inhibition at 35 µg/mL worked out at 0%.

As for `C=CC(C)(C)C1=C(O)C(=O)c2ccccc2C1=O`, the Activity with Spodoptera frugiperda [1] was 30%; with Spodoptera frugiperda [8], 47.4%; with Spodoptera frugiperda [12], 35.5%; with Spodoptera frugiperda [14], 6.8%; with Spodoptera frugiperda [19], 50.8%. In addition, in the assay on Spodoptera frugiperda [2], the “Length gained relative to control” value is 4.1%. For the same compound, the Growth_index in the assay with Spodoptera frugiperda [6] came out at 0.12; with Spodoptera frugiperda [13], 0.12; in the assay on Spodoptera frugiperda [20], 0.1; in the assay on Spodoptera frugiperda [22], 0.45. The “Larval length gained (% of control)” value in the assay with Spodoptera frugiperda [9] was determined as 24.2%. Moreover, in the assay with Spodoptera frugiperda [11], the mortality at 35 µg/mL turned out to be 95.8%. Besides, the mortality at 50 µg/mL with Spodoptera frugiperda [15] and in the assay on Drosophila melanogaster [16] was 100% throughout. Also, the LD50 in the assay with Spodoptera frugiperda [17] was 3.64 µg/mL. Moreover, the inhibition at 35 µg/mL in the assay with Spodoptera frugiperda [23] was 0%.

Regarding `C[C@H]1[C@H](C)CC[C@]2(C(=O)O)CC[C@]3(C)C(=CC[C@@H]4[C@@]5(C)CC[C@H](O)C(C)(C)[C@@H]5CC[C@]43C)[C@H]12` [URSOLIC ACID], the Activity stood at 30% with Spodoptera frugiperda [1]; 20.1% in the assay with Spodoptera frugiperda [4]; 81.5% with Spodoptera frugiperda [8]; 73% in the assay with Spodoptera frugiperda [12]; 52.9% in the assay with Spodoptera frugiperda [14]; 68.6% in the assay on Spodoptera frugiperda [19]. Further, the Activity in the assay on Spodoptera frugiperda [21] is given as 7.9%. Moreover, the “Length gained relative to control” value in the assay on Spodoptera frugiperda [2] came out at 0%. Besides, the mortality at 100 µg/mL with Drosophila melanogaster [3] amounted to 100%. The Growth_index in the assay on Spodoptera frugiperda [6] is listed as 0.28; with Spodoptera frugiperda [13] it was 0.29; in the assay with Spodoptera frugiperda [22], 0.73. The “Larval length gained (% of control)” value in the assay with Spodoptera frugiperda [9] stood at 10.7%. In addition, the mortality at 35 µg/mL in the assay on Spodoptera frugiperda [11] came out at 46.8%. Besides, the Time with Spodoptera frugiperda [28] was over 24 days. For the same compound, the mortality at 50 µg/mL with Spodoptera frugiperda [15] came out at 100%; with Drosophila melanogaster [16] it was 65.2%. In addition, the inhibition at 35 µg/mL in the assay with Spodoptera frugiperda [23] came to 0%.

The term mortality denotes the percentage killed. The inhibition is the percentage by which the read-out fell short of the control.
